# Measured values taken from US10858355B2, “Inhibitors of phosphatidylinositol 3-kinase gamma” (AstraZeneca AB, priority 2016, dated 2020).
# Molecular target: recombinant human PI3Kγ (aa144-1102)-6His (Homo sapiens (Human), UniProt P48736)
# Assay: Test A: Enzymatic Activity Assay for Rec Human PI3Kγ (ADP-Glo)
# Assay type: biochemical
# Details: 20 μM ATP, 80 μM DiC8-PIP2, 1.2 nM PI3Kγ, 15 min pre-incubation, 60 min reaction; for IC50: read-out: PI3Kγ activity, pIC50 (converted)
# Protocol: Pharmacological Activity Test A: Enzymatic Activity Assay for Rec Human PI3Kγ
# The activity of recombinant human PI3Kγ (aa144-1102)-6His was determined by measuring the ADP level after phosphorylation of DiC8-PIP2 using a commercially available ADP-Glo™ kit from Promega. The assay was carried out in white low volume 384 well plates in a final volume of 14 μl at rt. The assay conditions contained the following: 50 mM Tris buffer pH 7.4, 2.1 mM DTT, 3 mM MgCl2, 0.05% CHAPS, 20 μM ATP, 80 μM DiC8-PIP2 and 1.2 nM PI3Kγ. […] Routinely, inhibitors were pre-incubated with 3 μl of PI3Kγ for 15 min prior to the addition of […] substrate mixture for a further 60 min enzyme reaction. The phosphorylation was stopped with the addition of 3 μl ADP-Glo™ reagent (stop solution) followed by a 40 min incubation. Prior to detection 6 μl of ADP-Glo™ Kinase Detection Reagent was added and the plates were read in a micro plate reader using a Luminescence filter.
# recombinant human PI3Kγ (aa144-1102)-6His, sequence (P48736 144-1102): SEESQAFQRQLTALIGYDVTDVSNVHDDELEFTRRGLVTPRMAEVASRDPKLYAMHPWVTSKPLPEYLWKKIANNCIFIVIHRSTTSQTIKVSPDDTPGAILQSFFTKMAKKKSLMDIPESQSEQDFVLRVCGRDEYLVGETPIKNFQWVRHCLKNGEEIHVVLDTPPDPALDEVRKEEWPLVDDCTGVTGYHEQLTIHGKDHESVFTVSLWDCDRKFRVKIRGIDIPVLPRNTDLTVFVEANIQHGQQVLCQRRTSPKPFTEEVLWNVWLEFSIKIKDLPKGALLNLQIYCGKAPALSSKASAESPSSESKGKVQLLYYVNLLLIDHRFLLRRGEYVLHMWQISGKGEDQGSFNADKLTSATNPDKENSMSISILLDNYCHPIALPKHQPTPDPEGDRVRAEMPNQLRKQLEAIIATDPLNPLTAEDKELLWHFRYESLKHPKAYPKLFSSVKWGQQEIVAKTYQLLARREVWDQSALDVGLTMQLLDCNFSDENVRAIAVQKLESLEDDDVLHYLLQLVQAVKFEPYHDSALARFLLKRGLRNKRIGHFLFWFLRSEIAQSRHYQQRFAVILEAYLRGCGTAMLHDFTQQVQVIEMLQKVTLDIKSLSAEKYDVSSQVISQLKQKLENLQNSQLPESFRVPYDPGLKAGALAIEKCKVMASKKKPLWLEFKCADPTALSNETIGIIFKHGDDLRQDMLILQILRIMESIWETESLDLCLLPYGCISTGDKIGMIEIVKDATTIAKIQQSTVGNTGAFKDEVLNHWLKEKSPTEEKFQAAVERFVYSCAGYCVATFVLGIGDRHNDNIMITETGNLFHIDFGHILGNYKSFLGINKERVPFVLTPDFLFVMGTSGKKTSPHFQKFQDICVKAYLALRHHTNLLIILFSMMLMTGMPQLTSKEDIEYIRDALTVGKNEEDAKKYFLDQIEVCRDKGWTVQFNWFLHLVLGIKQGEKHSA
"PI3Kγ activity, pIC50",IC50,SMILES
9.0,,"CC(=O)Nc1ncc(-c2cc3c(c(S(C)(=O)=O)c2)C(=O)N([C@@H](C)C2CC2)C3)s1 [Example 2, N-(5-{2-[(1S)-1-Cyclopropylethyl]-7-(methylsulfonyl)-1-oxo-2,3-dihydro-1H-isoindol-5-yl}-1,3-thiazol-2-yl)acetamide]"
8.8,,"CC(=O)Nc1nc(C)c(-c2cc3c(c(S(C)(=O)=O)c2)C(=O)N(C(C)C)C3)s1 [Example 3, N-{4-Methyl-5-[7-(methylsulfonyl)-1-oxo-2-(propan-2-yl)-2,3-dihydro-1H-isoindol-5-yl]-1,3-thiazol-2-yl}acetamide]"
9.0,,"CC(=O)Nc1nc(C)c(-c2cc3c(c(NC(C)=O)c2)C(=O)N([C@@H](C)C2CC2)C3)s1 [Example 5, N-(5-{7-(Acetylamino)-2-[(1S)-1-cyclopropylethyl]-1-oxo-2,3-dihydro-1H-isoindol-5-yl}-4-methyl-1,3-thiazol-2-yl)acetamide]"
9.1,,"CC(=O)Nc1nc(C)c(-c2cc3c(c(S(=O)(=O)N(C)C)c2)C(=O)N([C@@H](C)C2CC2)C3)s1 [Example 7, N-(5-{2-[(1S)-1-Cyclopropylethyl]-7-(dimethylsulfamoyl)-1-oxo-2,3-dihydro-1H-isoindol-5-yl}-4-methyl-1,3-thiazol-2-yl)acetamide]"
9.0,,"CNS(=O)(=O)c1cc(-c2cnc(NC(C)=O)s2)cc2c1C(=O)N([C@@H](C)C1CC1)C2 [Example 8, N-(5-{2-[(1S)-1-Cyclopropylethyl]-7-(methylsulfamoyl)-1-oxo-2,3-dihydro-1H-isoindol-5-yl}-1,3-thiazol-2-yl)acetamide]"
8.9,,"CC(=O)Nc1nc(C)c(-c2cc3c(c(S(=O)(=O)NC4CCC4)c2)C(=O)N([C@@H](C)C2CC2)C3)s1 [Example 10, N-(5-{7-(Cyclobutylsulfamoyl)-2-[(1S)-1-cyclopropylethyl]-1-oxo-2,3-dihydro-1H-isoindol-5-yl}-4-methyl-1,3-thiazol-2-yl)acetamide]"
8.8,,"CNS(=O)(=O)c1cc(-c2sc(NC(C)=O)nc2C)cc2c1C(=O)N(C(C)C)C2 [Example 11, N-{4-Methyl-5-[7-(methylsulfamoyl)-1-oxo-2-(propan-2-yl)-2,3-dihydro-1H-isoindol-5-yl]-1,3-thiazol-2-yl}acetamide]"
,1.26 nM,"CC(=O)Nc1ncc(-c2cc3c(c(S(N)(=O)=O)c2)C(=O)N([C@@H](C)C2CC2)C3)s1 [Example 12, N-(5-{2-[(1S)-1-Cyclopropylethyl]-1-oxo-7-sulfamoyl-2,3-dihydro-1H-isoindol-5-yl}-1,3-thiazol-2-yl)acetamide]"
9.0,,"CC(=O)Nc1nc(C)c(-c2cc3c(c(S(=O)(=O)NCC4CC4)c2)C(=O)N([C@@H](C)C2CC2)C3)s1 [Example 13, N-(5-{2-[(1S)-1-Cyclopropylethyl]-7-[(cyclopropylmethyl)sulfamoyl]-1-oxo-2,3-dihydro-1H-isoindol-5-yl}-4-methyl-1,3-thiazol-2-yl)acetamide]"
9.0,,"CC(=O)Nc1nc(C)c(-c2cc3c(c(S(=O)(=O)NC4CC4)c2)C(=O)N([C@@H](C)C2CC2)C3)s1 [Example 14, N-(5-{2-[(1S)-1-Cyclopropylethyl]-7-(cyclopropylsulfamoyl)-1-oxo-2,3-dihydro-1H-isoindol-5-yl}-4-methyl-1,3-thiazol-2-yl)acetamide]"
9.4,,"CCNS(=O)(=O)c1cc(-c2sc(NC(C)=O)nc2C)cc2c1C(=O)N([C@@H](C)C1CC1)C2 [Example 15, N-(5-{2-[(1S)-1-Cyclopropylethyl]-7-(ethylsulfamoyl)-1-oxo-2,3-dihydro-1H-isoindol-5-yl}-4-methyl-1,3-thiazol-2-yl)acetamide]"
9.2,,"CC(=O)Nc1nc(C)c(-c2cc3c(c(S(=O)(=O)NC4COC4)c2)C(=O)N([C@@H](C)C2CC2)C3)s1 [Example 16, N-(5-{2-[(1S)-1-Cyclopropylethyl]-7-(oxetan-3-ylsulfamoyl)-1-oxo-2,3-dihydro-1H-isoindol-5-yl}-4-methyl-1,3-thiazol-2-yl)acetamide]"
8.9,,"CC(=O)Nc1nc(C)c(-c2cc3c(c(S(=O)(=O)NC4CC(F)(F)C4)c2)C(=O)N([C@@H](C)C2CC2)C3)s1 [Example 17, N-(5-{2-[(1S)-1-Cyclopropylethyl]-7-[(3,3-difluorocyclobutyl)sulfamoyl]-1-oxo-2,3-dihydro-1H-isoindol-5-yl}-4-methyl-1,3-thiazol-2-yl)acetamide]"
,0.398 nM,"CC(=O)Nc1nc(C)c(-c2cc3c(c(S(=O)(=O)NCC4(CF)CC4)c2)C(=O)N([C@@H](C)C2CC2)C3)s1 [Example 19, N-(5-{2-[(1S)-1-Cyclopropylethyl]-7-({[1-(fluoromethyl)cyclopropyl]methyl}sulfamoyl)-1-oxo-2,3-dihydro-1H-isoindol-5-yl}-4-methyl-1,3-thiazol-2-yl)acetamide]"
9.2,,"CC(=O)Nc1nc(C)c(-c2cc3c(c(S(=O)(=O)NCC(F)(F)F)c2)C(=O)N([C@@H](C)C2CC2)C3)s1 [Example 20, N-(5-{2-[(1S)-1-Cyclopropylethyl]-1-oxo-7-[(2,2,2-trifluoroethyl)sulfamoyl]-2,3-dihydro-1H-isoindol-5-yl}-4-methyl-1,3-thiazol-2-yl)acetamide]"
8.9,,"CC(=O)Nc1nc(C)c(-c2cc3c(c(S(N)(=O)=O)c2)C(=O)N(C(C)C)C3)s1 [Example 21, N-{4-Methyl-5-[1-oxo-2-(propan-2-yl)-7-sulfamoyl-2,3-dihydro-1H-isoindol-5-yl]-1,3-thiazol-2-yl}acetamide]"
,0.794 nM,"CC(=O)Nc1ncc(-c2cc3c(c(NS(C)(=O)=O)c2)C(=O)N([C@@H](C)C2CC2)C3)s1 [Example 22, N-(5-{2-[(1S)-1-Cyclopropylethyl]-7-[(methylsulfonyl)amino]-1-oxo-2,3-dihydro-1H-isoindol-5-yl}-1,3-thiazol-2-yl)acetamide]"
9.2,,"CC(=O)Nc1nc(C)c(-c2cc3c(c(NS(=O)(=O)C4CC4)c2)C(=O)N([C@@H](C)C2CC2)C3)s1 [Example 23, N-(5-{2-[(1S)-1-Cyclopropylethyl]-7-[(cyclopropylsulfonyl)amino]-1-oxo-2,3-dihydro-1H-isoindol-5-yl}-4-methyl-1,3-thiazol-2-yl)acetamide]"
9.0,,"CCCS(=O)(=O)Nc1cc(-c2sc(NC(C)=O)nc2C)cc2c1C(=O)N([C@@H](C)C1CC1)C2 [Example 24, N-(5-{2-[(1S)-1-Cyclopropylethyl]-1-oxo-7-[(propylsulfonyl)amino]-2,3-dihydro-1H-isoindol-5-yl}-4-methyl-1,3-thiazol-2-yl)acetamide]"
9.1,,"CCS(=O)(=O)Nc1cc(-c2sc(NC(C)=O)nc2C)cc2c1C(=O)N([C@@H](C)C1CC1)C2 [Example 25, N-(5-{2-[(1S)-1-Cyclopropylethyl]-7-[(ethylsulfonyl)amino]-1-oxo-2,3-dihydro-1H-isoindol-5-yl}-4-methyl-1,3-thiazol-2-yl)acetamide]"
9.0,,"CC(=O)Nc1nc(C)c(-c2cc3c(c(NS(=O)(=O)C(C)(C)C)c2)C(=O)N([C@@H](C)C2CC2)C3)s1 [Example 26, N-(5-{7-[(tert-Butylsulfonyl)amino]-2-[(1S)-1-cyclopropylethyl]-1-oxo-2,3-dihydro-1H-isoindol-5-yl}-4-methyl-1,3-thiazol-2-yl)acetamide]"
9.1,,"CC(=O)Nc1nc(C)c(-c2cc3c(c(NS(=O)(=O)CC4CC4)c2)C(=O)N([C@@H](C)C2CC2)C3)s1 [Example 28, N-[5-(2-[(1S)-1-Cyclopropylethyl]-7-{[(cyclopropylmethyl)sulfonyl]amino}-1-oxo-2,3-dihydro-1H-isoindol-5-yl)-4-methyl-1,3-thiazol-2-yl]acetamide]"
8.9,,"CC(=O)Nc1nc(C)c(-c2cc3c(c(NS(=O)(=O)c4cn(C)nc4C)c2)C(=O)N([C@@H](C)C2CC2)C3)s1 [Example 29, N-[5-(2-[(1S)-1-Cyclopropylethyl]-7-{[(1,3-dimethyl-1H-pyrazol-4-yl)sulfonyl]amino}-1-oxo-2,3-dihydro-1H-isoindol-5-yl)-4-methyl-1,3-thiazol-2-yl]acetamide]"
,1.26 nM,"CNS(=O)(=O)c1cc(-c2sc(NC(C)=O)nc2Cl)cc2c1C(=O)N([C@@H](C)C1CC1)C2 [Example 30, N-(4-Chloro-5-{2-[(1S)-1-cyclopropylethyl]-7-(methylsulfamoyl)-1-oxo-2,3-dihydro-1H-isoindol-5-yl}-1,3-thiazol-2-yl)acetamide]"
8.7,,"CNS(=O)(=O)c1cc(-c2cnc3c(N)nccn23)cc2c1C(=O)N([C@@H](C)C1CC1)C2 [Example 31, 6-(8-Aminoimidazo[1,2-a]pyrazin-3-yl)-2-[(1S)-1-cyclopropylethyl]-N-methyl-3-oxo-2,3-dihydro-1H-isoindole-4-sulfonamide]"
9.0,,"CNS(=O)(=O)c1cc(-c2sc(NC(C)=O)nc2C)cc2c1C(=O)N(C(C)(C)C1CC1)C2 [Example 32, N-{5-[2-(2-Cyclopropylpropan-2-yl)-7-(methylsulfamoyl)-1-oxo-2,3-dihydro-1H-isoindol-5-yl]-4-methyl-1,3-thiazol-2-yl}acetamide]"
